Source: patent US12577231B2, “Androgen receptor PROTACS” (GlaxoSmithKline Intellectual Property Development Limited, priority 2023, dated 2026)

Each molecule was assayed against T1, Androgen Receptor protein in human LnCaP cells (Homo sapiens, UniProt P10275, T878A) (assay: Androgen Receptor Degradation Assay (Nano-Glo HiBiT, LnCaP cells)). Details: 18 h, HiBiT-tagged AR LnCaP cells, 18 h incubation, fitted curve asymptote maximum of degradation, read-out: mean asymptote max.
T1 construct: the AR gene was modified, using CRISPR/Cas9 editing, so the expressed AR protein included an 11 amino acid HiBiT tag; endogenous in cells; host or cells: clonal LnCaP derived cell line, endogenous AR gene edited by CRISPR/Cas9
T1 sequence (P10275 1-920 T878A): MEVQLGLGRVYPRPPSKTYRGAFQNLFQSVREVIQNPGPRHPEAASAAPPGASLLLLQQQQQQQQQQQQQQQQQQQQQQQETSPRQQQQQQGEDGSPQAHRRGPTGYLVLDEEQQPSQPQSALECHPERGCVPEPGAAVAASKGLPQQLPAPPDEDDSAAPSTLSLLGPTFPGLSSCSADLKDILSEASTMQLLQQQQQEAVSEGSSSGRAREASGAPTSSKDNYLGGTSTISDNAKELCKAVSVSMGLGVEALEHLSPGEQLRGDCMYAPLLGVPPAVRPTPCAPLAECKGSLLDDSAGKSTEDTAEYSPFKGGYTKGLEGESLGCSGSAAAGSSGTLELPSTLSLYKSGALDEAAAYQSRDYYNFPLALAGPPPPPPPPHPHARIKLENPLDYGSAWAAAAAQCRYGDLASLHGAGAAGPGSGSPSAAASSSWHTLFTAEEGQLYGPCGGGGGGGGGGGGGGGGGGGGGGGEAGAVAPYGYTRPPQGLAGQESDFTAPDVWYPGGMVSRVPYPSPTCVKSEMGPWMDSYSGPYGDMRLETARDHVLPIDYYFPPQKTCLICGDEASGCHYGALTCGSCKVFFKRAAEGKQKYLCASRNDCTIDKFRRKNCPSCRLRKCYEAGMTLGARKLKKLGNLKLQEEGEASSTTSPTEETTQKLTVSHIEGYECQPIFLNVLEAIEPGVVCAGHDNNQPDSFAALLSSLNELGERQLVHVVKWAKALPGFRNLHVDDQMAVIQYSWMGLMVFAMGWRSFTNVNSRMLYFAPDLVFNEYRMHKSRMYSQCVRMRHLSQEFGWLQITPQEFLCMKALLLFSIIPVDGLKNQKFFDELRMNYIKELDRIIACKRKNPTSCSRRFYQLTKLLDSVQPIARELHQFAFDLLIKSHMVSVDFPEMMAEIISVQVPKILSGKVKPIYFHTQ
Format: cell-based
Description: Degradation of Androgen Receptor protein in human LnCaP cells treated with PROTACs was quantified using the Nano-Glo® HiBiT Lytic Detection System (Promega) in 384 well assay plate format. A clonal LnCaP derived cell line was first established in which the AR gene was modified, using CRISPR/Cas9 editing, so the expressed AR protein included an 11 amino acid HiBiT tag at its amino-terminus. 10 mM DMSO stock solutions of PROTACs were prepared and diluted across an 11 concentration, 3 fold increment range, and 25 nL dispensed into a white opaque bottomed 384 well assay plate (Thermofisher) using an acoustic ECHO dispenser (Labcyte). Cells were grown in cell culture medium (RPMI 1640 supplemented with 15% FBS, penicillin 50U/mL and streptomycin 50 ug/mL (Thermofisher)). For the assay, cells were detached from flask and resuspended with assay medium (FluoroBrite™ DMEM supplemented with 10% heat inactivated FBS, penicillin 50U/mL and streptomycin 50 ug/mL (Thermofisher)). The cell suspension was centrifuged at 400 g for 5 min and the pellet resuspended in assay medium. 25 μL of cell suspension containing 10,000 cells was dispensed into each well of the assay plate containing a serial dilution of test compounds, which was then incubated for 18 h at 37° C./5% CO2. Control wells were included on each assay plate, with assay medium without cells being the no AR remaining 100% effect control, and cells treated with DMSO vehicle only, without PROTAC, the 0% effect control. 25 μL of Nano-Glo® HiBiT lysis buffer supplemented with LgBiT protein and Nano-Glo® substrate (Promega) was added to each well and the plate shaken at 500 rpm for 10 min at room temperature. The intensity of luminescence was measured using a PHERAstar microplate reader (BMG Labtech) and the % AR protein remaining in each well calculated by normalising the raw luminescence value to the above control wells. Parameters corresponding to the potency and efficacy estimates of the PROTACs were obtained from these normalised luminescence values using software (IDBS ActivityBase). These included the DC50 (concentration at which 50% of protein was degraded in M) and the Dmax (maximal degradation, in %) estimates. Two versions of the DC50, called relative DC50 and absolute DC50, were generated. These are the inflection point of a fitted 4 parameter sigmoidal response curve and the interpolated concentration of PROTAC corresponding to 50% of the protein being degraded, respectively. The corresponding pDC50 is reported as −log10(relative […]). The Dmax parameter was the maximum experimentally observed degradation and the asymptote max parameter the fitted response curve asymptote maximum.

| Dmax | Compound |
| --- | --- |
| ≥ 50% | CC1(C)[C@H](NC(=O)c2ccc(N3CCC(CN4CCC(n5ncc6c(N7CCC(=O)NC7=O)cccc65)CC4)CC3)c(F)c2)C(C)(C)[C@H]1Oc1cnc(C#N)c(Cl)c1 [Example 3, N-((1r,3r)-3-((5-Chloro-6-cyanopyridin-3-yl)oxy)-2,2,4,4-tetramethylcyclobutyl)-4-(4-((4-(4-(2,4-dioxotetrahydropyrimidin-1(2H)-yl)-1H-indazol-1-yl)piperidin-1-yl)methyl)piperidin-1-yl)-3-fluorobenzamide] |
| ≥ 50% | CC1(C)[C@H](NC(=O)c2ccc(N3CCC(CN4CCC(n5ncc6c(N7CCC(=O)NC7=O)cccc65)CC4)CC3)c(F)c2)C(C)(C)[C@H]1Oc1ccc(C#N)c2c1CCCO2 [Example 8, N-((1r,3r)-3-((8-Cyanochroman-5-yl)oxy)-2,2,4,4-tetramethylcyclobutyl)-4-(4-((4-(4-(2,4-dioxotetrahydropyrimidin-1(2H)-yl)-1H-indazol-1-yl)piperidin-1-yl)methyl)piperidin-1-yl)-3-fluorobenzamide] |
| ≥ 50% | CC1(C)[C@H](NC(=O)c2ccc(N3CCC(CN4CCC(n5ncc6c(N7CCC(=O)NC7=O)c(F)ccc65)CC4)CC3)c(F)c2)C(C)(C)[C@H]1Oc1ccc(C#N)c(Cl)c1 [Example 13, N-((1r,3r)-3-(3-Chloro-4-cyanophenoxy)-2,2,4,4-tetramethylcyclobutyl)-4-(4-((4-(4-(2,4-dioxotetrahydropyrimidin-1(2H)-yl)-5-fluoro-1H-indazol-1-yl)piperidin-1-yl)methyl)piperidin-1-yl)-3-fluorobenzamide] |
| ≥ 50% | COc1cc(O[C@H]2C(C)(C)[C@H](NC(=O)c3ccc(N4CCC(CN5CCC(n6ncc7c(N8CCC(=O)NC8=O)cccc76)CC5)CC4)cc3)C2(C)C)ccc1C#N [Example 15, N-((1r,3r)-3-(4-Cyano-3-methoxyphenoxy)-2,2,4,4-tetramethylcyclobutyl)-4-(4-((4-(4-(2,4-dioxotetrahydropyrimidin-1(2H)-yl)-1H-indazol-1-yl)piperidin-1-yl)methyl)piperidin-1-yl)benzamide] |
| ≥ 50% | COc1cc(O[C@H]2C(C)(C)[C@H](NC(=O)c3ccc(N4CCC(CN5CC[C@@H](n6ncc7c(N8CCC(=O)NC8=O)cccc76)[C@@H](F)C5)CC4)c(F)c3)C2(C)C)ccc1C#N [Example 27, N-((1r,3r)-3-(4-Cyano-3-methoxyphenoxy)-2,2,4,4-tetramethylcyclobutyl)-4-(4-(((3,4R)-4-(4-(2,4-dioxotetrahydropyrimidin-1(2H)-yl)-1H-indazol-1-yl)-3-fluoropiperidin-1-yl)methyl)piperidin-1-yl)-3-fluorobenzamide] |
| ≥ 50% | CC1(C)[C@H](NC(=O)c2ccc(N3CCC(CN4CCC(n5ccc6c(N7CCC(=O)NC7=O)ncnc65)CC4)CC3)cc2)C(C)(C)[C@H]1Oc1ccc(C#N)c2ncccc12 [Example 28, N-((1r,3r)-3-((8-Cyanoquinolin-5-yl)oxy)-2,2,4,4-tetramethylcyclobutyl)-4-(4-((4-(4-(2,4-dioxotetrahydropyrimidin-1(2H)-yl)-7H-pyrrolo[2,3-d]pyrimidin-7-yl)piperidin-1-yl)methyl)piperidin-1-yl)benzamide] |
| ≥ 50% | CC1(C)[C@H](NC(=O)c2cc(F)c(N3CCC(CN4CCC(n5ncc6c(N7CCC(=O)NC7=O)cccc65)CC4)CC3)c(F)c2)C(C)(C)[C@H]1Oc1ccc(C#N)c2ncccc12 [Example 30, N-((1r,3r)-3-((8-Cyanoquinolin-5-yl)oxy)-2,2,4,4-tetramethylcyclobutyl)-4-(4-((4-(4-(2,4-dioxotetrahydropyrimidin-1(2H)-yl)-1H-indazol-1-yl)piperidin-1-yl)methyl)piperidin-1-yl)-3,5-difluorobenzamide] |
| ≥ 50% | CC1(C)[C@H](NC(=O)c2ccc(N3CCC(CN4CCC(n5ccc6c(N7CCC(=O)NC7=O)cccc65)CC4)CC3)c(F)c2)C(C)(C)[C@H]1Oc1ccc(C#N)c2ncccc12 [Example 31, N-((1r,3r)-3-((8-Cyanoquinolin-5-yl)oxy)-2,2,4,4-tetramethylcyclobutyl)-4-(4-((4-(4-(2,4-dioxotetrahydropyrimidin-1(2H)-yl)-1H-indol-1-yl)piperidin-1-yl)methyl)piperidin-1-yl)-3-fluorobenzamide] |
| ≥ 50% | CC1(C)[C@H](NC(=O)c2ccc(N3CCC(CN4CCC(n5ccc6c(N7CCC(=O)NC7=O)cc(F)cc65)CC4)CC3)c(F)c2)C(C)(C)[C@H]1Oc1ccc(C#N)c2ncccc12 [Example 32, N-((1r,3r)-3-((8-Cyanoquinolin-5-yl)oxy)-2,2,4,4-tetramethylcyclobutyl)-4-(4-((4-(4-(2,4-dioxotetrahydropyrimidin-1(2H)-yl)-6-fluoro-1H-indol-1-yl)piperidin-1-yl)methyl)piperidin-1-yl)-3-fluorobenzamide] |
| ≥ 50% | CC1(C)[C@H](NC(=O)c2ccc(N3CC[C@@H](CN4CCC(n5ncc6c(N7CCC(=O)NC7=O)cccc65)CC4)C3)c(F)c2)C(C)(C)[C@H]1Oc1ccc(C#N)c2ncccc12 [Example 33, N-((1r,3S)-3-((8-Cyanoquinolin-5-yl)oxy)-2,2,4,4-tetramethylcyclobutyl)-4-((S)-3-((4-(4-(2,4-dioxotetrahydropyrimidin-1(2H)-yl)-1H-indazol-1-yl)piperidin-1-yl)methyl)pyrrolidin-1-yl)-3-fluorobenzamide] |
| ≥ 50% | CC1(C)[C@H](NC(=O)c2ccc(N3CC[C@H](CN4CCC(n5ncc6c(N7CCC(=O)NC7=O)cccc65)CC4)C3)c(F)c2)C(C)(C)[C@H]1Oc1ccc(C#N)c2ncccc12 [Example 34, N-((1r,3R)-3-((8-Cyanoquinolin-5-yl)oxy)-2,2,4,4-tetramethylcyclobutyl)-4-((R)-3-((4-(4-(2,4-dioxotetrahydropyrimidin-1(2H)-yl)-1H-indazol-1-yl)piperidin-1-yl)methyl)pyrrolidin-1-yl)-3-fluorobenzamide] |
| ≥ 50% | CC1(C)[C@H](NC(=O)c2ccc(N3CCC(CN4CC[C@@H](n5ncc6c(N7CCC(=O)NC7=O)cccc65)C4)CC3)c(F)c2)C(C)(C)[C@H]1Oc1ccc(C#N)c2ncccc12 [Example 36, N-((1r,3r)-3-((8-Cyanoquinolin-5-yl)oxy)-2,2,4,4-tetramethylcyclobutyl)-4-(4-(((R)-3-(4-(2,4-dioxotetrahydropyrimidin-1(2H)-yl)-1H-indazol-1-yl)pyrrolidin-1-yl)methyl)piperidin-1-yl)-3-fluorobenzamide] |
| ≥ 50% | CC1(C)[C@H](NC(=O)c2ccc(N3CCC(CN4CC[C@H](n5ncc6c(N7CCC(=O)NC7=O)cccc65)C4)CC3)c(F)c2)C(C)(C)[C@H]1Oc1ccc(C#N)c2ncccc12 [Example 37, N-((1r,3r)-3-((8-Cyanoquinolin-5-yl)oxy)-2,2,4,4-tetramethylcyclobutyl)-4-(4-(((S)-3-(4-(2,4-dioxotetrahydropyrimidin-1(2H)-yl)-1H-indazol-1-yl)pyrrolidin-1-yl)methyl)piperidin-1-yl)-3-fluorobenzamide] |
